Structures are written as SMILES. In brackets after ≈: the same amount, converted by molar mass. A value given as a limit tells only on which side of the number the result lay.

One assay has as its system M. tuberculosis strains. Briefly: Minimum Inhibitory Concentration (MIC) against M. tuberculosis strains, resazurin microtiter plate assay. To be noted: Mycobacterium tuberculosis. The assay is classed as cell-based, Mycobacterium tuberculosis. Background: Resazurin is reduced to fluorescent resorufin, in cell work by metabolically active cells.
What is called MIC90 is the lowest concentration that inhibits either 90% of growth or 90% of the strains tested, depending on the study. As for `CNC(=O)c1cc(N2CCCCC2)c2c(C)c(-c3ccncc3)c(C)cc2n1` [Compound 69], the MIC90 was determined as 5 µM (≈ 1.87 µg/mL).
The same measure, in the same setting: in the case of `Cc1cc2nccc(-c3ccccc3)c2c(C)c1-c1ccn(C)n1` [Compound 75] it was greater than 125 µM.
The same measure, in the same setting: for `Cc1cc2nccc(-c3ccccc3)c2c(C)c1-c1ccnn1C` [Compound 76] the value was 47 µM (≈ 14.7 µg/mL).
The compound `Cc1cc2nccc(-c3ccccc3)c2c(C)c1-c1cnn(C)c1` [Compound 77] yielded an MIC90 of 47 µM (≈ 14.7 µg/mL).
In turn, `CNC(=O)c1cc(-c2ccccc2F)c2c(C)c(-c3ccoc3)c(C)cc2n1` [Compound 80] registered an MIC90 of 0.6 µM (≈ 0.225 µg/mL).
`CNC(=O)c1cc(-c2ccccc2F)c2c(C)c(C3=CCNCC3)c(C)cc2n1` [Compound 86] registered an MIC90 of 20 µM (≈ 7.79 µg/mL).
On the same count and under the same terms, for `CNC(=O)c1cc(-c2ccccc2F)c2c(C)c(C3=CCC(CO)CC3)c(C)cc2n1` (stereo not drawn) [Compound 91] the value was 0.6 µM (≈ 0.251 µg/mL).

The assay is the same for the next values; noted with them: Mycobacterium tuberculosis, Table 3, C4 SAR; Middlebrook 7H9, 37° C. six days, resazurin fluorescence after 48 hours; read-out: MIC90.
Consider `CNC(=O)c1cc(-c2cncnc2)c2c(C)c(-c3ccncc3)c(C)cc2n1` [Compound 68], for which the MIC90 worked out at 10 µM (≈ 3.69 µg/mL).
The same measure, in the same setting: for `CNC(=O)c1cc(N2CCOCC2)c2c(C)c(-c3ccncc3)c(C)cc2n1` [Compound 70] the value was 20 µM (≈ 7.53 µg/mL); for `CNC(=O)c1cc(N2CCCC2)c2c(C)c(-c3ccncc3)c(C)cc2n1` [Compound 71], greater than 50 µM.

Still in this assay, the particulars now being: Mycobacterium tuberculosis, Table 4, C6 SAR; Middlebrook 7H9, 37° C. six days, resazurin fluorescence after 48 hours; read-out: MIC90.
Consider `Cc1cc2nccc(-c3ccccc3)c2c(C)c1-c1ccncc1` [Compound 72], for which the MIC90 came to 5 µM (≈ 1.55 µg/mL).
For `Cc1cc2nccc(-c3ccccc3)c2c(C)c1-c1cncnc1` [Compound 73], the MIC90 was found to be 40 µM (≈ 12.5 µg/mL).
For the compound `Cc1cc2nccc(-c3ccccc3)c2c(C)c1-c1cnco1` [Compound 74], the MIC90 was determined as 31 µM (≈ 9.31 µg/mL).

Still in this assay, the particulars now being: Mycobacterium tuberculosis, Table 4A, C6 SAR with amide; Middlebrook 7H9, 37° C. six days, resazurin fluorescence after 48 hours; read-out: MIC90.
For `CNC(=O)c1cc(-c2ccccc2F)c2c(C)c(-c3ccc(CN4CCOCC4)cc3)c(C)cc2n1` [Compound 78], the MIC90 was 0.6 µM (≈ 0.29 µg/mL).
Same read-out and setting: in the case of `CNC(=O)c1cc(-c2ccccc2F)c2c(C)c(-c3ccnc(C(F)(F)F)c3)c(C)cc2n1` [Compound 79] it was 5 µM (≈ 2.27 µg/mL); in that of `CNC(=O)c1cc(-c2ccccc2F)c2c(C)c(-c3cccs3)c(C)cc2n1` [Compound 81], 3 µM (≈ 1.17 µg/mL).
As for `CNC(=O)c1cc(-c2ccccc2F)c2c(C)c(-c3cnc(C(=O)O)nc3)c(C)cc2n1` [Compound 82], the MIC90 turned out to be 80 µM (≈ 34.4 µg/mL).
Turning to `CNC(=O)c1cc(-c2ccccc2F)c2c(C)c(-c3ccnc(N)c3)c(C)cc2n1` [Compound 83], the MIC90 was 7.5 µM (≈ 3 µg/mL).
Take `CNC(=O)c1cc(-c2ccccc2F)c2c(C)c(-c3ccnc(C)c3)c(C)cc2n1` [Compound 84]: the MIC90 amounted to 6 µM (≈ 2.4 µg/mL).
Still for that read-out and setting: for `CNC(=O)c1cc(-c2ccccc2F)c2c(C)c(-c3cccnc3)c(C)cc2n1` [Compound 85] the value was 3 µM (≈ 1.16 µg/mL); for `CNC(=O)c1cc(-c2ccccc2F)c2c(C)c(C3=CCC(C(=O)O)CC3)c(C)cc2n1` (stereo not drawn) [Compound 87], 2.5 µM (≈ 1.08 µg/mL); for `CNC(=O)c1cc(-c2ccccc2F)c2c(C)c(C3=CCN(S(=O)(=O)N4CCOCC4)CC3)c(C)cc2n1` [Compound 88], 10 µM (≈ 5.39 µg/mL).
Regarding `CNC(=O)c1cc(-c2ccccc2F)c2c(C)c(C3=CCC(C(=O)N4CCOCC4)CC3)c(C)cc2n1` (stereo not drawn) [Compound 89], the MIC90 is 1.25 µM (≈ 0.627 µg/mL).
The same measure, in the same setting: for `CNC(=O)c1cc(-c2ccccc2F)c2c(C)c(C3=CCN(C(=O)N4CCOCC4)CC3)c(C)cc2n1` [Compound 90] the value was 5 µM (≈ 2.51 µg/mL).
Turning to `CNC(=O)c1cc(-c2ccccc2F)c2c(C)c(C3=CCC(CN4CCOCC4)CC3)c(C)cc2n1` (stereo not drawn) [Compound 92], the MIC90 was 1.25 µM (≈ 0.61 µg/mL).

Staying with this assay, now noted: Mycobacterium tuberculosis, Table 5; Middlebrook 7H9, 37° C. six days, resazurin fluorescence after 48 hours; read-out: MIC90.
On to `Cc1cc2nccc(-c3cccnc3)c2c(C)c1-c1ccc(CN2CCOCC2)cc1` [Compound 93], for which the MIC90 was 1.6 µM (≈ 0.655 µg/mL).
On the same count and under the same terms, in the case of `Cc1cc2nc(C(=O)NS(C)(=O)=O)cc(-c3ccccc3Cl)c2c(C)c1-c1ccncc1` [Compound 94] it was 5 µM (≈ 2.33 µg/mL).
`CNC(=O)c1cc(-c2ccccc2)c2c(C)c(-c3ccncc3)c(C)cc2n1` [Compound 95]: the MIC90 is 0.3 µM (≈ 0.11 µg/mL).
Turning to `Cc1cc2nc(C(=O)NCCO)cc(-c3ccccc3)c2c(C)c1-c1ccncc1` [Compound 96], the MIC90 came to 0.3 µM (≈ 0.119 µg/mL).
Regarding `Cc1cc2nc(C(=O)N[C@H]3CCC[C@@H]3O)cc(-c3ccccc3F)c2c(C)c1-c1ccncc1` [Compound 97], the MIC90 was less than 0.16 µM.
Take `Cc1cc2nc(C(=O)N[C@@H]3CCC[C@H]3O)cc(-c3ccccc3F)c2c(C)c1-c1ccncc1` [Compound 98]: the MIC90 amounted to 0.6 µM (≈ 0.273 µg/mL).
As for `CNC(=O)c1cc(C2=CCOCC2)c2c(C)c(-c3ccncc3)c(C)cc2n1` [Compound 99], the MIC90 came out at 12.5 µM (≈ 4.67 µg/mL).
The same measure, in the same setting: in the case of `CNC(=O)c1cc(N2CCN(C)CC2)c2c(C)c(-c3ccncc3)c(C)cc2n1` [Compound 100] it was greater than 50 µM; in that of `CNC(=O)c1cc(N2CCNCC2)c2c(C)c(-c3ccncc3)c(C)cc2n1` [Compound 101], greater than 50 µM.
Regarding `CNC(=O)c1cc(C2=CCCCC2)c2c(C)c(-c3ccncc3)c(C)cc2n1` [Compound 102], the MIC90 was determined as 3 µM (≈ 1.11 µg/mL).

Still in this assay, the particulars now being: Mycobacterium tuberculosis, Table 6; Middlebrook 7H9, 37° C. six days, resazurin fluorescence after 48 hours; read-out: MIC90.
As to `Cc1cc2nc(C(=O)N3CCC(N(C)C)C3)cc(-c3ccccc3Cl)c2c(C)c1-c1ccc(CN2CCOCC2)cc1` (stereo not drawn) [Compound 103], the MIC90 came to 0.8 µM (≈ 0.467 µg/mL).
Still for that read-out and setting: for `CNC(=O)c1cc(-c2ccnn2C)c2c(C)c(-c3ccncc3)c(C)cc2n1` [Compound 104] the value was 6 µM (≈ 2.23 µg/mL); for `Cc1cc2nc(C(=O)N[C@@H]3CN(C)C[C@@H]3F)cc(-c3ccnn3C)c2c(C)c1-c1ccncc1` [Compound 106], 1.6 µM (≈ 0.734 µg/mL).
On to `Cc1cc2nc(C(=O)NCCO)cc(-c3ccnn3C)c2c(C)c1-c1ccncc1` [Compound 107], for which the MIC90 was 1.6 µM (≈ 0.642 µg/mL).
